We go through seven compounds from ChEMBL document CHEMBL3991601, “The target landscape of clinical kinase drugs” (Science, 2017).

Assay [1] deals with Dual specificity protein kinase CLK2 (Homo sapiens, UniProt P49760).
The target in assay [2] is T1, Serine/threonine-protein kinase ICK (Homo sapiens, UniProt Q9UPZ9).
T1 sequence (Q9UPZ9 whole entry): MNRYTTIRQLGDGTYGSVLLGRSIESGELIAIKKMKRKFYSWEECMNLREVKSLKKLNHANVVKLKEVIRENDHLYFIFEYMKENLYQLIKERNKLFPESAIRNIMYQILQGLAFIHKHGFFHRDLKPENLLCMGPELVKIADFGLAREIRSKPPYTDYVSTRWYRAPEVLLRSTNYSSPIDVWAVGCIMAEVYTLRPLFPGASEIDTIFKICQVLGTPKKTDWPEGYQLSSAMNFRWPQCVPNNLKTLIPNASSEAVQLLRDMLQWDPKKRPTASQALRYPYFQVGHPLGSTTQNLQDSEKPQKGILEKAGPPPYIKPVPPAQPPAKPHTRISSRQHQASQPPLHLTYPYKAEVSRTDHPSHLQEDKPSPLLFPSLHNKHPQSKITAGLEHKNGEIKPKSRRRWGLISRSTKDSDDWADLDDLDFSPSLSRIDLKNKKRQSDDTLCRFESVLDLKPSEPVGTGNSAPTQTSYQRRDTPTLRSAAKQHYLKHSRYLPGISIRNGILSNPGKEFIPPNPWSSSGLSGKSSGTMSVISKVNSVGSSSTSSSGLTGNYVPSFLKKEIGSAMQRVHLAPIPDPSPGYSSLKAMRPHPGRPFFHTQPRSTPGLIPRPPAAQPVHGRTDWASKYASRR

The target in assay [3] is T2, MAP/microtubule affinity-regulating kinase 4 (Homo sapiens, UniProt Q96L34).
T2 sequence (Q96L34 whole entry): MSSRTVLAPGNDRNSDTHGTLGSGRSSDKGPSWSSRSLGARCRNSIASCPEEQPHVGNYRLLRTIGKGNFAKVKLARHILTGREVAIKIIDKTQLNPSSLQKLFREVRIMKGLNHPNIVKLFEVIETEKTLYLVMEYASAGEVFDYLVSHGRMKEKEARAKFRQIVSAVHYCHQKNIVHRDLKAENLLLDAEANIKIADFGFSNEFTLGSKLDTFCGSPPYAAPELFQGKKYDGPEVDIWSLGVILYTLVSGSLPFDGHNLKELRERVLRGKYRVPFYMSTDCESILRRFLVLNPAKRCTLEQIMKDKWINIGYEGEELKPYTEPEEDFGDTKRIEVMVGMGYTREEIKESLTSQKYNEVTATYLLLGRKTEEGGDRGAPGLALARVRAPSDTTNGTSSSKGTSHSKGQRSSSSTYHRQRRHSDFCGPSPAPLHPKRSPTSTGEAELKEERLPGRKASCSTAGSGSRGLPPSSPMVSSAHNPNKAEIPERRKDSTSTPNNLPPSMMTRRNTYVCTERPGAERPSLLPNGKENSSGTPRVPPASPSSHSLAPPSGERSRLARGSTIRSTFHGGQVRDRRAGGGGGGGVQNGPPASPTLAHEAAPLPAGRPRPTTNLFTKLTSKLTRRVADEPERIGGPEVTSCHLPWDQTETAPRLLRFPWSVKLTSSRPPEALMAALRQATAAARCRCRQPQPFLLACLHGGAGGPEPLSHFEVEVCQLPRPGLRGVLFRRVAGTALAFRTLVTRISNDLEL

Assay [4] addresses Myosin light chain kinase, smooth muscle (Homo sapiens, UniProt Q15746).
Assay [5] has as its target NADH dehydrogenase [ubiquinone] 1 alpha subcomplex subunit 13 (Homo sapiens, UniProt Q9P0J0).
The target of assay [6] is Protein-tyrosine kinase 6 (Homo sapiens, UniProt Q13882).
Protein-tyrosine kinase 6, sequence (Q13882 whole entry): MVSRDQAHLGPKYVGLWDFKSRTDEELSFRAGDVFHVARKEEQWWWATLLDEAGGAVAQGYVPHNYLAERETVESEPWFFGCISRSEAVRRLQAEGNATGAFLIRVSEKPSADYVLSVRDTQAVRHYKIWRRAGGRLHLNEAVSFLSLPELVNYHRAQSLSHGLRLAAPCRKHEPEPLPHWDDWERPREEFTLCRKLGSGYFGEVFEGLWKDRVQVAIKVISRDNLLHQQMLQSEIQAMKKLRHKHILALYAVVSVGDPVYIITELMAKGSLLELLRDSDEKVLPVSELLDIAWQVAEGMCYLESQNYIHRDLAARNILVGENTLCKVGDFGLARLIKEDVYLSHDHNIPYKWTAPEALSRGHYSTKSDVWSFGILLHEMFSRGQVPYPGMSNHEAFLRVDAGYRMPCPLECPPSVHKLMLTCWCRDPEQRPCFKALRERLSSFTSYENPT
The next assay deals with T3, Septin-9 (Homo sapiens, UniProt Q9UHD8).
T3 sequence (Q9UHD8 whole entry): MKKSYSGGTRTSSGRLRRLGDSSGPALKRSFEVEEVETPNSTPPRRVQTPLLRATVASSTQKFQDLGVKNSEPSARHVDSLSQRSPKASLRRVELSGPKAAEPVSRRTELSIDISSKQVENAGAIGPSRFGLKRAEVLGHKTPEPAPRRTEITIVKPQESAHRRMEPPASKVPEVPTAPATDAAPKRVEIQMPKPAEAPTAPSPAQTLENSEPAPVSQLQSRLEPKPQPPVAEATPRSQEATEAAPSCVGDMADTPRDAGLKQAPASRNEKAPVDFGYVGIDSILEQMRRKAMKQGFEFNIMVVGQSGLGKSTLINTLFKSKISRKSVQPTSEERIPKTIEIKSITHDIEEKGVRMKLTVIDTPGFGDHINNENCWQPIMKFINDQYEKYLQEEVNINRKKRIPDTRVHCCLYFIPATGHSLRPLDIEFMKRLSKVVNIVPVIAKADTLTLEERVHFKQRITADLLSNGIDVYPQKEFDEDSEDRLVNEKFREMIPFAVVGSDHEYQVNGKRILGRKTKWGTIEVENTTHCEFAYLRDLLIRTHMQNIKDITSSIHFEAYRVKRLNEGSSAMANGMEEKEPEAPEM

The target of another assay is T4, ADP/ATP translocase 3 (Homo sapiens, UniProt P12236).
T4 sequence (P12236 whole entry): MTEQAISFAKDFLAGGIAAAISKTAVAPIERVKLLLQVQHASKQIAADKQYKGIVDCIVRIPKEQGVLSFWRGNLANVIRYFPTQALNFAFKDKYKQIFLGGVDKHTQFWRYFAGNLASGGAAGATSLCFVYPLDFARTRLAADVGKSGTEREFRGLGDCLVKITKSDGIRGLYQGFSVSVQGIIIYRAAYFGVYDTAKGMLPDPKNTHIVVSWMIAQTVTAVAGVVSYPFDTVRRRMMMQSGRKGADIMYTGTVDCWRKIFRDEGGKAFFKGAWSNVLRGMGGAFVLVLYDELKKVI

Assay [7] addresses STE20-like serine/threonine-protein kinase (Homo sapiens, UniProt Q9H2G2).
The next assay has as its target TGF-beta receptor type-2 (Homo sapiens, UniProt P37173).

The source made the active and inactive calls. For most assays here, no stated cut-off is given here; in the data, actives have a measured Kd and inactives only a lower limit. Some results are limits rather than exact numbers.

Myosin light chain kinase, smooth muscle, sequence (Q15746 whole entry): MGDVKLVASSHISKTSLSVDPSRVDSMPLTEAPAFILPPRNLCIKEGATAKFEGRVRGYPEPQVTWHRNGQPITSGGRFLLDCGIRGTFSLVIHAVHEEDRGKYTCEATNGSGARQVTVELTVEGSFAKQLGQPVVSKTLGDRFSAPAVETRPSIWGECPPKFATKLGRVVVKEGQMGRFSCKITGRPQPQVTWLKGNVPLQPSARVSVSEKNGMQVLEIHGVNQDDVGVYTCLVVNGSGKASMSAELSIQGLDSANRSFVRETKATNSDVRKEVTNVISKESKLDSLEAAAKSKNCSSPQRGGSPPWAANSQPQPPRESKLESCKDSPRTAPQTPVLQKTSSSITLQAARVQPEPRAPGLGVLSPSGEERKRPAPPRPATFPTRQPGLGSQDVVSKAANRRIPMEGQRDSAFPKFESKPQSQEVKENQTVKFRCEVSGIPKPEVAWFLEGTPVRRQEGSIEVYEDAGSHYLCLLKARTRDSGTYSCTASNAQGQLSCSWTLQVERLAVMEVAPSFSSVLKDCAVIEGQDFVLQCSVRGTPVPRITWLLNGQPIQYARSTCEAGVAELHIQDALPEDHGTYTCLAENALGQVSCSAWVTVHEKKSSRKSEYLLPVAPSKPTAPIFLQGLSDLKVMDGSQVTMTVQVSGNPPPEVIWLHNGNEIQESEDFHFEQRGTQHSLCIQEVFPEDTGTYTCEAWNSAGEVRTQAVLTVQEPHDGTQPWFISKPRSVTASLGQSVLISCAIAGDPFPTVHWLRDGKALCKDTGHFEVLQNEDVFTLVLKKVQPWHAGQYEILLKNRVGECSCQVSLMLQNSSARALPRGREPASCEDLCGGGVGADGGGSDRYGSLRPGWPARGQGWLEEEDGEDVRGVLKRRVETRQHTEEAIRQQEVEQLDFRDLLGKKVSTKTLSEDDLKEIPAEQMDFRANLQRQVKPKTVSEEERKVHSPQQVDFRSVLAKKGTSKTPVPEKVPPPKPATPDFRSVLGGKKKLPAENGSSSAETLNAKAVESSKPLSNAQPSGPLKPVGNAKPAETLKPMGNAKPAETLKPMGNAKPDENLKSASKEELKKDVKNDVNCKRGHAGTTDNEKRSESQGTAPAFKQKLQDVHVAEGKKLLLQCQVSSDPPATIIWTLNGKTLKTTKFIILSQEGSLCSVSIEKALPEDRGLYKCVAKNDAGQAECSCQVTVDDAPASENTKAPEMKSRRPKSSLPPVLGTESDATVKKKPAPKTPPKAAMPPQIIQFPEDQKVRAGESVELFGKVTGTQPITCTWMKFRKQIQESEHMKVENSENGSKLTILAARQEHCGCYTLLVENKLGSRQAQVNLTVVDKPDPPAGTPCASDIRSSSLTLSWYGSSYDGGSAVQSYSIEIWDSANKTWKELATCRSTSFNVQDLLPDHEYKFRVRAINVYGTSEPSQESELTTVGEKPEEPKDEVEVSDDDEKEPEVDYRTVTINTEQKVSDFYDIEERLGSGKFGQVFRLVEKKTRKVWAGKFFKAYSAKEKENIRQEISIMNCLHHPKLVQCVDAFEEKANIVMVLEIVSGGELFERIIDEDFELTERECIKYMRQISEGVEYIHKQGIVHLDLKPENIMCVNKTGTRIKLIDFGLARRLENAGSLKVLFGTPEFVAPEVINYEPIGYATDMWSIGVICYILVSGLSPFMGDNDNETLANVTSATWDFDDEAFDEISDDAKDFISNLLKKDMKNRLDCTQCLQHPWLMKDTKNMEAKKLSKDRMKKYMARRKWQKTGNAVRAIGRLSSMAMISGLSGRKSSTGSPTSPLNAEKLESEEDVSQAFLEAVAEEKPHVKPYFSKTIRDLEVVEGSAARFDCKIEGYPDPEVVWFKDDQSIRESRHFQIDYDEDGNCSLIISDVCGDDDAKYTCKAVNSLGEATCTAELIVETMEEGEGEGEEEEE
NADH dehydrogenase [ubiquinone] 1 alpha subcomplex subunit 13, sequence (Q9P0J0 whole entry, one chain of several): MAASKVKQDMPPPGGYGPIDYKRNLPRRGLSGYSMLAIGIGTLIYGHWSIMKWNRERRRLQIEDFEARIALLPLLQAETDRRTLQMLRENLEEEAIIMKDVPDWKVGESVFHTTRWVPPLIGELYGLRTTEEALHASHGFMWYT
Dual specificity protein kinase CLK2, sequence (P49760 whole entry): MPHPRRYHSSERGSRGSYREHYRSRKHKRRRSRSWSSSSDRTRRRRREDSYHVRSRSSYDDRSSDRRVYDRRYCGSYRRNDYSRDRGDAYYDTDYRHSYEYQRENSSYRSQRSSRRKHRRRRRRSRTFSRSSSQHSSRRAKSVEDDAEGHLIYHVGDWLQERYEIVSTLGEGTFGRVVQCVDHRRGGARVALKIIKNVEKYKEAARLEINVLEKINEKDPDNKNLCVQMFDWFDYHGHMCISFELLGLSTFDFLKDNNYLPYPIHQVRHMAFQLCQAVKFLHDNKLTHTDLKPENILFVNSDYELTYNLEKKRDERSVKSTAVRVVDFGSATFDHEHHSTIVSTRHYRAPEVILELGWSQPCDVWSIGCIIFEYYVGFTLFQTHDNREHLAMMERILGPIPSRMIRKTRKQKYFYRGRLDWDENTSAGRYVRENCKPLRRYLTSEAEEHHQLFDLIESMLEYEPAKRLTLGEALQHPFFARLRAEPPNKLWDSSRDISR
STE20-like serine/threonine-protein kinase, sequence (Q9H2G2 whole entry): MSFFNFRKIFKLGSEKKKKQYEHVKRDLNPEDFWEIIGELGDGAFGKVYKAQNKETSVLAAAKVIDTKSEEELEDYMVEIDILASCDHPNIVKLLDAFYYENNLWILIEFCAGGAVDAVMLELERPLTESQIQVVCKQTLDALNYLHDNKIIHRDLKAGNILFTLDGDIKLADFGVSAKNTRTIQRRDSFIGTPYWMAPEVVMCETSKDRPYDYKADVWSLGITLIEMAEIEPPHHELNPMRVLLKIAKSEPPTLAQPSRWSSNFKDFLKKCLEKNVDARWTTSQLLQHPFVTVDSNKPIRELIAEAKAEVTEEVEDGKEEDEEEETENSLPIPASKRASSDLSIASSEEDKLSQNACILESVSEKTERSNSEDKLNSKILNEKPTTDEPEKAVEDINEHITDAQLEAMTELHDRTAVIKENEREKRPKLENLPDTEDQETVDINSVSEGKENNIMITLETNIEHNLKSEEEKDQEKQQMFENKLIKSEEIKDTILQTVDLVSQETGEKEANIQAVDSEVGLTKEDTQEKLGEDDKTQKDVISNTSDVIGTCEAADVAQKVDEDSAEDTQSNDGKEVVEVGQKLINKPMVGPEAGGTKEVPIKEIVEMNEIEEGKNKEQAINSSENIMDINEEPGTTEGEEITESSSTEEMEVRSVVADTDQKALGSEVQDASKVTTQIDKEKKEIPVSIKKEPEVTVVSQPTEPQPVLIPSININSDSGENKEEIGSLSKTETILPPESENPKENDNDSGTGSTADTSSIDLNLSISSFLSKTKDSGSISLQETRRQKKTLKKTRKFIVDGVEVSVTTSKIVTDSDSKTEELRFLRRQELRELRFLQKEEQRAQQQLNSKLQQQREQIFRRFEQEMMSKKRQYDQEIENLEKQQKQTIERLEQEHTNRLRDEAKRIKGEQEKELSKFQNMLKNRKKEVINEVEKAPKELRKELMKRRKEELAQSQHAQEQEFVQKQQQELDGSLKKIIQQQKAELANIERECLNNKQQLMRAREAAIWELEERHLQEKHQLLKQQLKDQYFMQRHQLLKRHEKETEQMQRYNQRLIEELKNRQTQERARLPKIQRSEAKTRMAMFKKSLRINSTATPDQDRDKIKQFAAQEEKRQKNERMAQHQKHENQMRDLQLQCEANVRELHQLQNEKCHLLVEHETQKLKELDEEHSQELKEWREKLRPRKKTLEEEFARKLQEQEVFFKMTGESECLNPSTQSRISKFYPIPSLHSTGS
TGF-beta receptor type-2, sequence (P37173 whole entry): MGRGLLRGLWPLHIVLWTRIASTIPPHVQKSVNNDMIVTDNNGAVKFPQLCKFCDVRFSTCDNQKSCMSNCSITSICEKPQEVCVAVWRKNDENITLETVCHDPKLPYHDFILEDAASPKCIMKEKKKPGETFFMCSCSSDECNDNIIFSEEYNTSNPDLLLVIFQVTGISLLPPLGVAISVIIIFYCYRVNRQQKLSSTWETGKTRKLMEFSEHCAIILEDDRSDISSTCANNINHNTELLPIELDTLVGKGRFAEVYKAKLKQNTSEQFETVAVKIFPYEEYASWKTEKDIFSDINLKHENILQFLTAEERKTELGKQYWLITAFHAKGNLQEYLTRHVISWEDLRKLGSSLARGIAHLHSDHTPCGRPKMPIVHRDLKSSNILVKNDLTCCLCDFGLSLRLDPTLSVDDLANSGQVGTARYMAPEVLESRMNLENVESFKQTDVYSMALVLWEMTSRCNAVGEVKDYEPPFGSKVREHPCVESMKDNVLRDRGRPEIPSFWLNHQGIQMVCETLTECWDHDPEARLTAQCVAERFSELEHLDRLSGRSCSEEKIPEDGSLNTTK

As to `NC1(c2ccc(-c3nc4ccn5c(=O)[nH]nc5c4cc3-c3ccccc3)cc2)CCC1` [MK-2206], the Kd in assay [1], in assay [2], in [3], in assay [4], in assay [5] and in [6] was > 30 µM (inactive) throughout. Besides, the Kd (on Septin-9; on ADP/ATP translocase 3; in [7]; at TGF-beta receptor type-2) was > 30 µM (inactive) in each case.

`Cn1cc(-c2cnc3ccc4ccc(CS(=O)(=O)NCc5ccccn5)cc4c(=O)c3c2)cn1` [MK-8033]: the Kd in assay [1], in assay [2], in [3], in assay [4], in assay [5] and in assay [6] was > 30 µM (inactive) each time. The Kd (at Septin-9; on ADP/ATP translocase 3; in [7]; at TGF-beta receptor type-2) was > 30 µM (inactive) each time.

As to `FC(F)(F)c1ccc(/C=C/c2nc(COc3ccc(CCCCn4ccnn4)cc3)co2)cc1` [MUBRITINIB], the Kd in [1], in assay [2], in [3], in [4], in assay [5] and in assay [6] was > 30 µM (inactive) each time. For the same compound, the Kd (at Septin-9; at ADP/ATP translocase 3; in assay [7]; on TGF-beta receptor type-2) was > 30 µM (inactive) in each case.

Regarding `COc1ncc(-c2ccc3nccc(-c4ccnnc4)c3c2)cc1NS(=O)(=O)c1ccc(F)cc1F` [OMIPALISIB], the Kd in assay [1], in assay [2], in [3], in assay [4], in assay [5] and in [6] was > 30 µM (inactive) throughout. The Kd (on Septin-9; at ADP/ATP translocase 3; in assay [7]; on TGF-beta receptor type-2) was > 30 µM (inactive) in each case.

Regarding `CCOc1cc2ncc(C#N)c(Nc3ccc(F)c(Cl)c3)c2cc1NC(=O)/C=C/CN(C)C` [PELITINIB], the Kd in [1], in assay [2], in assay [3], in assay [4], in assay [5] and in [6] was > 30 µM (inactive) in each case. Besides, the Kd (at Septin-9; at ADP/ATP translocase 3; in assay [7]; at TGF-beta receptor type-2) was > 30 µM (inactive) in each case.

Turning to `Cc1nc(Nc2n[nH]c3c2CN(C(=O)N[C@H](CN(C)C)c2ccccc2)C3(C)C)c2sccc2n1` [PF-03758309], the Kd (as a rule, the concentration at which binding is half-saturated) is > 30 µM (inactive) in assay [1]; 0.237 µM in assay [2]; 0.029 µM (active) in assay [3]; > 30 µM (inactive) in [4]; > 30 µM (inactive) in [5]; > 30 µM (inactive) in assay [6]. Moreover, the Kd (at Septin-9; at ADP/ATP translocase 3; in assay [7]; on TGF-beta receptor type-2) was > 30 µM (inactive) in each case.

Turning to `Cc1cnc(NC(=O)Nc2cc(Br)c(C)cc2OC[C@@H]2CNCCO2)cn1` [RABUSERTIB], the Kd in assay [1], in assay [2], in [3], in assay [4], in [5] and in assay [6] was > 30 µM (inactive) in each case. The Kd (at Septin-9; on ADP/ATP translocase 3; in assay [7]; on TGF-beta receptor type-2) was > 30 µM (inactive) in each case.
